Target: T1, STK16 (PKL12) (Homo sapiens, UniProt O75716)
T1 construct: purchased Thermo Fisher Scientific (Life Technologies) SelectScreen
Assay: SelectScreen LanthaScreen
Type: binding
Details: read-out: % displacement
In short: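 NU5455 was profiled across the SelectScreen Broad panel of kinase activity and binding assays. Z'LYTE reactions such as CSF1R ran at apparent Km ATP, while the Adapta CAMK1 assay used ATP listed as 10. Values are given as percent.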

T1 sequence (O75716 whole entry): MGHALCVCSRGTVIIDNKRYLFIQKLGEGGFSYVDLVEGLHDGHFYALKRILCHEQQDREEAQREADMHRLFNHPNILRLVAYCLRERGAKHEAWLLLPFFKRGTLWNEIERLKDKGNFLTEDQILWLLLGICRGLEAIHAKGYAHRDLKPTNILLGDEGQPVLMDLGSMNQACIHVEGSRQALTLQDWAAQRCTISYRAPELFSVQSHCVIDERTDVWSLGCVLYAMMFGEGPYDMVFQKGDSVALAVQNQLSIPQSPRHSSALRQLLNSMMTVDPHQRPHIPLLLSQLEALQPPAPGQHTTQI

Q: Which inhibition at 1 µM does the source give for `CN(C(=O)CN1CCOCC1)c1ccc2sc3c(-c4cccc5c(=O)cc(N6CC7CCC(C6)O7)oc45)cccc3c2c1` [NU5455] here?
A: 10.5%

From paper PMC6934184, “Selective DNA-PKcs inhibition extends the therapeutic index of localized radiotherapy and chemotherapy” (The Journal of Clinical Investigation, 2019)
